Laboratory results as given in ChEMBL document CHEMBL4507281, “Data for DCP probe BI-4394” (2021).

Columns and labels:
[1] = molecular target: Atypical kinase COQ8B, mitochondrial (Homo sapiens) (UniProt Q96D53); conditions: Compound concentration 100.0 nM
[2] = molecular target: Cyclin-dependent kinase 19 (Homo sapiens) (UniProt Q9BWU1); conditions: Compound concentration 100.0 nM
[3] = molecular target: Death-associated protein kinase 2 (Homo sapiens) (UniProt Q9UIK4); conditions: Compound concentration 100.0 nM
[4] = system: Serine/threonine-protein kinase B-raf (Homo sapiens), P15056 [V600E]; conditions: Compound concentration 100.0 nM
[5] = molecular target: Receptor-interacting serine/threonine-protein kinase 1 (Homo sapiens) (UniProt Q13546); conditions: Compound concentration 100.0 nM
[6] = molecular target: Serine/threonine-protein kinase 17A (Homo sapiens) (UniProt Q9UEE5); conditions: Compound concentration 100.0 nM
[7] = molecular target: Protein kinase C iota type (Homo sapiens) (UniProt P41743); conditions: Compound concentration 100.0 nM
[8] = molecular target: Casein kinase I isoform alpha (Homo sapiens) (UniProt P48729); conditions: Compound concentration 100.0 nM
[9] = molecular target: G protein-coupled receptor kinase 3 (Homo sapiens) (UniProt P35626); conditions: Compound concentration 100.0 nM
[10] = molecular target: Mitogen-activated protein kinase kinase kinase kinase 4 (Homo sapiens) (UniProt O95819); conditions: Compound concentration 100.0 nM
[11] = molecular target: Tyrosine-protein kinase receptor Tie-1 (Homo sapiens) (UniProt P35590); conditions: Compound concentration 100.0 nM
[12] = molecular target: Homeodomain-interacting protein kinase 3 (Homo sapiens) (UniProt Q9H422); conditions: Compound concentration 100.0 nM
[13] = molecular target: Serine/threonine-protein kinase 32A (Homo sapiens) (UniProt Q8WU08); conditions: Compound concentration 100.0 nM
[14] = molecular target: Phosphatidylinositol 4,5-bisphosphate 3-kinase catalytic subunit alpha isoform (Homo sapiens) (UniProt P42336); conditions: Compound concentration 100.0 nM
[15] = system: Epidermal growth factor receptor (Homo sapiens), P00533 [UNDEFINED MUTATION]; conditions: Compound concentration 100.0 nM
[16] = molecular target: G protein-coupled receptor kinase 4 (Homo sapiens) (UniProt P32298); conditions: Compound concentration 100.0 nM
[17] = molecular target: Mast/stem cell growth factor receptor Kit (Homo sapiens) (UniProt P10721); conditions: Compound concentration 100.0 nM
[18] = molecular target: Epithelial discoidin domain-containing receptor 1 (Homo sapiens) (UniProt Q08345); conditions: Compound concentration 100.0 nM
[19] = molecular target: Tyrosine-protein kinase Fgr (Homo sapiens) (UniProt P09769); conditions: Compound concentration 100.0 nM
[20] = molecular target: cAMP-dependent protein kinase catalytic subunit beta (Homo sapiens) (UniProt P22694); conditions: Compound concentration 100.0 nM
[21] = molecular target: TRAF2 and NCK-interacting protein kinase (Homo sapiens) (UniProt Q9UKE5); conditions: Compound concentration 100.0 nM
[22] = molecular target: Serine/threonine-protein kinase BRSK2 (Homo sapiens) (UniProt Q8IWQ3); conditions: Compound concentration 100.0 nM
[23] = molecular target: Leukocyte tyrosine kinase receptor (Homo sapiens) (UniProt P29376); conditions: Compound concentration 100.0 nM
[24] = molecular target: Ribosomal protein S6 kinase alpha-1 (Homo sapiens) (UniProt Q15418); conditions: Compound concentration 100.0 nM
[25] = molecular target: Dual specificity mitogen-activated protein kinase kinase 2 (Homo sapiens) (UniProt P36507); conditions: Compound concentration 100.0 nM
[26] = molecular target: Casein kinase I isoform epsilon (Homo sapiens) (UniProt P49674); conditions: Compound concentration 100.0 nM
[27] = system: eIF-2-alpha kinase GCN2 (Homo sapiens), Q9P2K8 [S808G]; conditions: Compound concentration 100.0 nM
[28] = molecular target: Alpha-1B adrenergic receptor (Homo sapiens) (UniProt P35368); conditions: Compound concentration 10.0 uM
[29] = molecular target: Serine/threonine-protein kinase Nek6 (Homo sapiens) (UniProt Q9HC98); conditions: Compound concentration 100.0 nM
[30] = molecular target: STE20/SPS1-related proline-alanine-rich protein kinase (Homo sapiens) (UniProt Q9UEW8); conditions: Compound concentration 100.0 nM
[31] = molecular target: Mitogen-activated protein kinase 10 (Homo sapiens) (UniProt P53779); conditions: Compound concentration 100.0 nM
[32] = molecular target: Ephrin type-B receptor 1 (Homo sapiens) (UniProt P54762); conditions: Compound concentration 100.0 nM
[33] = system: Tyrosine-protein kinase ABL1 (Homo sapiens), P00519 [H396P]; conditions: Compound concentration 100.0 nM
[34] = molecular target: Ribosomal protein S6 kinase alpha-1 (Homo sapiens) (UniProt Q15418); conditions: Compound concentration 100.0 nM; remark: listed apart in the source
[35] = molecular target: Receptor-interacting serine/threonine-protein kinase 2 (Homo sapiens) (UniProt O43353); conditions: Compound concentration 100.0 nM
[36] = molecular target: Ephrin type-A receptor 5 (Homo sapiens) (UniProt P54756); conditions: Compound concentration 100.0 nM
[37] = molecular target: Serine/threonine-protein kinase DCLK2 (Homo sapiens) (UniProt Q8N568); conditions: Compound concentration 100.0 nM
[38] = molecular target: Ephrin type-A receptor 2 (Homo sapiens) (UniProt P29317); conditions: Compound concentration 100.0 nM
[39] = system: Hepatocyte growth factor receptor (Homo sapiens), P08581 [M1250T]; conditions: Compound concentration 100.0 nM
[40] = molecular target: Receptor-interacting serine/threonine-protein kinase 4 (Homo sapiens) (UniProt P57078); conditions: Compound concentration 100.0 nM
[41] = molecular target: Serine/threonine-protein kinase 36 (Homo sapiens) (UniProt Q9NRP7); conditions: Compound concentration 100.0 nM
[42] = molecular target: Serine/threonine-protein kinase Sgk1 (Homo sapiens) (UniProt O00141); conditions: Compound concentration 100.0 nM
[43] = system: Proto-oncogene tyrosine-protein kinase receptor Ret (Homo sapiens), P07949 [M918T]; conditions: Compound concentration 100.0 nM
[44] = molecular target: Tyrosine-protein kinase Lyn (Homo sapiens) (UniProt P07948); conditions: Compound concentration 100.0 nM
[45] = molecular target: Serine/threonine-protein kinase D2 (Homo sapiens) (UniProt Q9BZL6); conditions: Compound concentration 100.0 nM

Sequence of Ribosomal protein S6 kinase alpha-1 (Homo sapiens) (Q15418 whole entry): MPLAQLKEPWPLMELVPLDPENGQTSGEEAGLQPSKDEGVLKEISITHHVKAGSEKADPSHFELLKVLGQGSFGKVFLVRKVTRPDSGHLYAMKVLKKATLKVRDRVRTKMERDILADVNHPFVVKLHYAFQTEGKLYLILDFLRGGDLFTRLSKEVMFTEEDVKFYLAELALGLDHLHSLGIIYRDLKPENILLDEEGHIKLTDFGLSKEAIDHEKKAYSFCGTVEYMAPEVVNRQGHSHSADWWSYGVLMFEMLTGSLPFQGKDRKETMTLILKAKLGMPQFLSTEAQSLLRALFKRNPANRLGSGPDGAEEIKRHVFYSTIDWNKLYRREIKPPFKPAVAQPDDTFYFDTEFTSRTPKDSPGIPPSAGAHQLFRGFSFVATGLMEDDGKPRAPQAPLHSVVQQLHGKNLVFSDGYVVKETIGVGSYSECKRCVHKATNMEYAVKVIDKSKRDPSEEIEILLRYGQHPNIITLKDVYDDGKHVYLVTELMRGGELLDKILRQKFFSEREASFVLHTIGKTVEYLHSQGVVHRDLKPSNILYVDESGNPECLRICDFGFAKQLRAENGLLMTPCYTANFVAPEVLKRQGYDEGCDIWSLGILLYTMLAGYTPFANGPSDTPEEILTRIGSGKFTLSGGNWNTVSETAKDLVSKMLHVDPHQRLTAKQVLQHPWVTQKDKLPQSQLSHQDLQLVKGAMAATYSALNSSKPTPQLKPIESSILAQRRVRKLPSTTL
Sequence of Phosphatidylinositol 4,5-bisphosphate 3-kinase catalytic subunit alpha isoform (Homo sapiens) (P42336 whole entry, canonical isoform): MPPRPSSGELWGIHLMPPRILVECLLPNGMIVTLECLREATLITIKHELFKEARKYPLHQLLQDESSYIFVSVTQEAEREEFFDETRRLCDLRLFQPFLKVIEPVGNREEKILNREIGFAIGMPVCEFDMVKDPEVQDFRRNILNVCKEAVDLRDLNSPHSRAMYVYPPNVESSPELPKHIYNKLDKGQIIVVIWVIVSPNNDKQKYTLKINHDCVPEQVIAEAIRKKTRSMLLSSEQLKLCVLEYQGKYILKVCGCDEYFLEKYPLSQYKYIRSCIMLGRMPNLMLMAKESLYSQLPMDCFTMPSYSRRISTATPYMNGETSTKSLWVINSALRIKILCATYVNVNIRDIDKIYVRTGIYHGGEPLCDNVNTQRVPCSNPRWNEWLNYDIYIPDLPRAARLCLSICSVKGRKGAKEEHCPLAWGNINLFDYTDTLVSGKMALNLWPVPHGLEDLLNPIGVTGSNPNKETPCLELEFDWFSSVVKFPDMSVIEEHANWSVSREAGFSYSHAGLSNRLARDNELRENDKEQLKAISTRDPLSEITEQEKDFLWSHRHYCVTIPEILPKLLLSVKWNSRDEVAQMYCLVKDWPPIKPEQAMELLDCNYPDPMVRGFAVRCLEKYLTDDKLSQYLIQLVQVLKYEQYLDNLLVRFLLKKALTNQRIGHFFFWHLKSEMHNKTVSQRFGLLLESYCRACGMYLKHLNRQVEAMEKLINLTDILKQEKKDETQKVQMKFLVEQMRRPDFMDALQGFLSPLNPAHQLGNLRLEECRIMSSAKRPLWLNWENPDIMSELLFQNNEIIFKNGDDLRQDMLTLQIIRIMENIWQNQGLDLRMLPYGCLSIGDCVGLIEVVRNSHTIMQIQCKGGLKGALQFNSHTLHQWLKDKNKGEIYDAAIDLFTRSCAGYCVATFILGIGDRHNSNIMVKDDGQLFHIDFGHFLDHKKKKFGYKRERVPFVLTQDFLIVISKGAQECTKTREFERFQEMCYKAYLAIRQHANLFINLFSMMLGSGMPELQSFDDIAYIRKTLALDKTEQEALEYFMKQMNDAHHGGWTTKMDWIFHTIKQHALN
Sequence of Receptor-interacting serine/threonine-protein kinase 1 (Homo sapiens) (Q13546 whole entry): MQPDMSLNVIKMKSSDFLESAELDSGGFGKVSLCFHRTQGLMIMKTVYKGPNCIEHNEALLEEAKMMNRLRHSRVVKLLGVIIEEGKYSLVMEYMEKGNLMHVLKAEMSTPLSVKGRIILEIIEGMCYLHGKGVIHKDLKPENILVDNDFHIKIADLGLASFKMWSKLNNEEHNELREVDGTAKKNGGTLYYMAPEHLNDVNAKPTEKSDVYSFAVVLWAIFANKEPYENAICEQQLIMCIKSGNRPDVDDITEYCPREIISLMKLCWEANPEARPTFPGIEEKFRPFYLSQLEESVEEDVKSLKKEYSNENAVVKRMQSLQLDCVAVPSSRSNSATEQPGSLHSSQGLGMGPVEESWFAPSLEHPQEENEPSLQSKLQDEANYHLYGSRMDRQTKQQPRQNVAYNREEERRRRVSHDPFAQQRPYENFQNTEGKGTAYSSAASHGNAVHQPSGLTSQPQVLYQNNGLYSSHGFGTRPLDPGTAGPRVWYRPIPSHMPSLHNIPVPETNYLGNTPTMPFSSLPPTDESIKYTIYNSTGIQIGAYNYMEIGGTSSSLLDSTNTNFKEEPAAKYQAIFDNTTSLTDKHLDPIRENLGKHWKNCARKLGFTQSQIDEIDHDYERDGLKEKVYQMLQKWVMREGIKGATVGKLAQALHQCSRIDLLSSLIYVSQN
Sequence of Mitogen-activated protein kinase 10 (Homo sapiens) (P53779 whole entry): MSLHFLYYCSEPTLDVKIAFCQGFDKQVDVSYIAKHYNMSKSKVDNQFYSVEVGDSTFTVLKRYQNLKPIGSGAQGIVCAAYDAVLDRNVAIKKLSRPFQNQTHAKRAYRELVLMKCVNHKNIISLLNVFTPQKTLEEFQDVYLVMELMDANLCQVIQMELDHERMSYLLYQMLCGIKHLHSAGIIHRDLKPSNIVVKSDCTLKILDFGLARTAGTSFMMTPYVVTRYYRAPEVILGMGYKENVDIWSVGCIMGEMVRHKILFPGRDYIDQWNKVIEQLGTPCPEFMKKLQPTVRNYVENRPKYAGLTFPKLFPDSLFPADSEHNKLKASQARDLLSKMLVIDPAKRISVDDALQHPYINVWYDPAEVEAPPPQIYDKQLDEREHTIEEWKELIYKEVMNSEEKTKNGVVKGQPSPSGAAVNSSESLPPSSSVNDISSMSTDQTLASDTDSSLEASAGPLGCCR
Sequence of Ephrin type-A receptor 5 (Homo sapiens) (P54756 whole entry): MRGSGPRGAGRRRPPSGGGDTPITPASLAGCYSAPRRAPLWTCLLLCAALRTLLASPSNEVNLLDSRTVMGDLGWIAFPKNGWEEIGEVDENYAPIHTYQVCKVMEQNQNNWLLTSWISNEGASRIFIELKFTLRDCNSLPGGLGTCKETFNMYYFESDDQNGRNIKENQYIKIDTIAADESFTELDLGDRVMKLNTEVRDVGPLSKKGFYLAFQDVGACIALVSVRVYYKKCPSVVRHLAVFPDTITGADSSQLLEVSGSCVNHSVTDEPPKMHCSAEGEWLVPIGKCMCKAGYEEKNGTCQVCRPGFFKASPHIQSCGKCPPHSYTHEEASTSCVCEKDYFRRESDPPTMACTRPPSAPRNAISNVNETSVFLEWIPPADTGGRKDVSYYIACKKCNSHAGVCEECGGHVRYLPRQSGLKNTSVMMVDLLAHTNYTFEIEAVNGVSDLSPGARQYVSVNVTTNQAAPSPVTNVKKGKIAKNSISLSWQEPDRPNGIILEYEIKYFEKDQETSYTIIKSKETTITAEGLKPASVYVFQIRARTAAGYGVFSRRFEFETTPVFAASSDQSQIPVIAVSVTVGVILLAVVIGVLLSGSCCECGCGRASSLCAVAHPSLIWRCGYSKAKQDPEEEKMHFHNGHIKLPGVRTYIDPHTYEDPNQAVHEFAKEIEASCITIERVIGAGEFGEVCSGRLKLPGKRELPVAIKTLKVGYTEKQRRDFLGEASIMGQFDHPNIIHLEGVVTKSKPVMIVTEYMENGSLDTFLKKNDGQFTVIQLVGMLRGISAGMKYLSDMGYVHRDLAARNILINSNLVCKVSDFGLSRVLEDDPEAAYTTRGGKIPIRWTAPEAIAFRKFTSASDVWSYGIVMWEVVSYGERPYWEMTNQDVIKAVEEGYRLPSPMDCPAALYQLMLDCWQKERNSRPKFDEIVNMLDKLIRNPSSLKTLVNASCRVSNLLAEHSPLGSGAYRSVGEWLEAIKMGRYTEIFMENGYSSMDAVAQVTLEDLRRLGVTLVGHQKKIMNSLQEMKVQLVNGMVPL
Sequence of Leukocyte tyrosine kinase receptor (Homo sapiens) (P29376 whole entry): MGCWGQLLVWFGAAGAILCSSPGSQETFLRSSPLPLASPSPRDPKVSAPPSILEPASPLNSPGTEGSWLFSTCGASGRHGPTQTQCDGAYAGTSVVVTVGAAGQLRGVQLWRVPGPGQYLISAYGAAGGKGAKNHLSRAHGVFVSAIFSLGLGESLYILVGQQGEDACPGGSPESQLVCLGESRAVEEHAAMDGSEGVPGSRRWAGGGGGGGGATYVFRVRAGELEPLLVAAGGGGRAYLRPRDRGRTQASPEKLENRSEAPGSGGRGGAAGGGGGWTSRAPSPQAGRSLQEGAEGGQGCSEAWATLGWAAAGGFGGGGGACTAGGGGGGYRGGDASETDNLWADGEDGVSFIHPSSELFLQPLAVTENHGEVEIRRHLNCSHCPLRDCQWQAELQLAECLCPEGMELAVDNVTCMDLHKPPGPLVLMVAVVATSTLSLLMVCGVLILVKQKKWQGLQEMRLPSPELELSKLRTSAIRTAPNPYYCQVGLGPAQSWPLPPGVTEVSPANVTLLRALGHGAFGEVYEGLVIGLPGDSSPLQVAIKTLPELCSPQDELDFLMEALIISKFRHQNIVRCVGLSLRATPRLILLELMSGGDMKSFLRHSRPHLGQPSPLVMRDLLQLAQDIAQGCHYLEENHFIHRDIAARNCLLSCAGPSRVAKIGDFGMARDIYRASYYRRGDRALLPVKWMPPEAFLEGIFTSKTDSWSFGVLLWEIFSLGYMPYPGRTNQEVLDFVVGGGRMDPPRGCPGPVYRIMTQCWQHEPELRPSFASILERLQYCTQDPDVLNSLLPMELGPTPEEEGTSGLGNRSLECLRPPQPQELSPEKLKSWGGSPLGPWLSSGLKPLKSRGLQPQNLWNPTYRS

SMILES: CCOC(=O)c1cc2cc(-c3cc(C(=O)NCc4ccc(C(=O)O)cc4)nn3C)ccc2[nH]1 [BI 4394]
- residual activity [1]: 100%
- residual activity [2]: 0%
- residual activity [3]: 92%
- residual activity [4]: 100%
- residual activity [5]: 100%
- residual activity [6]: 97%
- residual activity [7]: 87%
- residual activity [8]: 88%
- residual activity [9]: 96%
- residual activity [10]: 95%
- residual activity [11]: 76%
- residual activity [12]: 81%
- residual activity [13]: 75%
- residual activity [14]: 92%
- residual activity [15]: 100%
- residual activity [16]: 100%
- residual activity [17]: 83%
- residual activity [18]: 100%
- residual activity [19]: 94%
- residual activity [20]: 86%
- residual activity [21]: 100%
- residual activity [22]: 67%
- residual activity [23]: 100%
- residual activity [24]: 97%
- residual activity [25]: 83%
- residual activity [26]: 100%
- residual activity [27]: 100%
- inhibition [28]: -1.29%
- residual activity [29]: 95%
- residual activity [30]: 85%
- residual activity [31]: 100%
- residual activity [32]: 100%
- residual activity [33]: 85%
- residual activity [34]: 84%
- residual activity [35]: 100%
- residual activity [36]: 100%
- residual activity [37]: 100%
- residual activity [38]: 100%
- residual activity [39]: 87%
- residual activity [40]: 82%
- residual activity [41]: 97%
- residual activity [42]: 100%
- residual activity [43]: 100%
- residual activity [44]: 100%
- residual activity [45]: 100%

SMILES: Cn1nc(C(=O)NCc2ccc(C(=O)O)cc2)cc1-c1ccc2[nH]ccc2c1 [BI 4395]
- residual activity [1]: 100%
- residual activity [2]: 100%
- residual activity [3]: 96%
- residual activity [4]: 89%
- residual activity [5]: 100%
- residual activity [6]: 92%
- residual activity [7]: 80%
- residual activity [8]: 81%
- residual activity [9]: 81%
- residual activity [10]: 92%
- residual activity [11]: 93%
- residual activity [12]: 88%
- residual activity [13]: 92%
- residual activity [14]: 41%
- residual activity [15]: 74%
- residual activity [16]: 96%
- residual activity [17]: 90%
- residual activity [18]: 89%
- residual activity [19]: 87%
- residual activity [20]: 98%
- residual activity [21]: 97%
- residual activity [22]: 100%
- residual activity [23]: 81%
- residual activity [24]: 100%
- residual activity [25]: 85%
- residual activity [26]: 80%
- residual activity [27]: 94%
- inhibition [28]: -6.1%
- residual activity [29]: 91%
- residual activity [30]: 90%
- residual activity [31]: 76%
- residual activity [32]: 87%
- residual activity [33]: 84%
- residual activity [34]: 95%
- residual activity [35]: 100%
- residual activity [36]: 92%
- residual activity [37]: 92%
- residual activity [38]: 95%
- residual activity [39]: 91%
- residual activity [40]: 68%
- residual activity [41]: 93%
- residual activity [42]: 88%
- residual activity [43]: 49%
- residual activity [44]: 100%
- residual activity [45]: 100%
